Laboratory results as given in patent publication US10604480B2, “(Thio, oxo, and seleno) semicarbazone derivatives and their use for treating cancer” (RUTGERS, THE STATE UNIVERSITY OF NEW JERSEY, priority 2015, dated 2020).

How the values were obtained:
HEK293 cells = assay: Intracellular [Zn2+]free imaging with FluoZin-3-AM, HEK293 cells; type: cell-based; conditions: for increase of intracellular [Zn2+]free (FZ3-AM fluorescence): HEK293 (non-cancer, p53-WT), complete media, confocal microscopy
Protocol: (§1) To minimize the potential for Zn^2+ contamination and contributions from poorly defined elements in complete media (e.g. FBS), cells were treated and imaged in Ca^2+ and Mg^2+-free Earle's Balanced Salt Solution supplemented with 10 mM HEPES pH 7.4 (EBSS/H (−)Ca/Mg). Excess ZnCl2 with the Zn^2+ ionophore pyrithione (PYR) was used as a positive control. Excess membrane-permeable Zn^2+ chelator N,N,N′,N′-tetrakis(2-pyridylmethyl)ethane-1,2-diamine (TPEN) was used as a negative control.
To normalize for differential dye loading, cells were then sequentially treated with excess PYR/ZnCl2, imaged, treated with TPEN, and imaged again. PYR/ZnCl2 and TPEN served to saturate and apoize the intracellular FZ3, respectively.
TOV112D or HEK293 cells (40,000 cells/well) were plated on either 8-well BD Falcon chambered culture slides (Corning Life Sciences) or 8-chambered #1.5 Nunc Lab-Tek II chambered coverglasses (Thermo Scientific) treated with poly-L-lysine. After 48 h, cells were washed 2×5 m in serum-free media and incubated with 1 μM FZ3-AM for 40 m at 37° C. Cells were then washed 2×5 m in either EBSS/H (−)Ca/Mg or phenol-red free DMEM+10% FBS containing the indicated treatments for 20 m before imaging. For nuclear colocalization, 1 μg/mL Hoechst 33342 was also included. Cells were imaged using a Zeiss LSM50 META NLO confocal microscope equipped with 37° C. environmental control chamber. FZ3 and Hoechst 33342 were excited at 488 nm (argon laser) and 790 nm (Chameleon Ti:sapphire laser), respectively. To determine the kinetics of fluorescence change, each background-subtracted image in the time-lapse series was integrated in ImageJ and normalized to the integrated fluorescence of the first frame after treatment. For quantification of intracellular [Zn^2+]free, each cell was analyzed in the treated, 50 μM PYR/ZnCl2 (1:1), and 100 μM TPEN images by taking the mean fluorescence of an ROI inside the cell subtracted by an ROI immediately outside the cell measured in ImageJ. The [Zn^2+]free for each cell was then calculated by Eqn 2:
[formula] […] To minimize the effects of outliers the lowest and highest 5% of cells in each series were rejected, and the remaining values averaged to give the value from that experiment. The number of cells analyzed in each trial ranged from 54-163. For nuclear colocalization, treated, PYR/ZnCl2, and TPEN treated images costained with Hoechst 33342 were aligned and each pixel subjected to Eqn. 2 in MATLAB (MathWorks).

[1] = Liposome import assay (RZ-3 fluorescence); conditions: for Zn2+ shuttling into liposomes: external [Zn2+]free 10 μM
Protocol: However, in complete media containing 10% fetal bovine serum (FBS), Zn^2+-binding proteins from the serum (e.g. albumin) necessarily compete for Zn^2+ with any putative MC, making the effective [Zn^2+]free much lower than [Zn^2+]total.
(§2) DOPC-liposomes were prepared by film rehydration and extrusion followed by gel filtration and diluted to an OD600=0.06 in buffer. The size distribution of the liposomes was determined by dynamic light scattering (DLS) using a Malvern Zetasizer Nano ZS. Fluorescence measurements were taken on a Horiba Fluoromax-4 spectrofluorimeter in a 5×5 mm quartz cuvette with λex/λem=550/572 nm for RZ-3 and 490/515 nm for calcein. Initial Zn^2+ import/export was quantified by fitting the first 10-30 s of data after each treatment to a line and converted to units of flux using the following Eqn 1:
[formula] where Ji is the initial flux, ΔF/Δt is the slope of the fit line, Fmax is RZ-3 fluorescence in the presence of saturating Zn^2+ and 1% TritonX-100, Fmin is RZ-3 fluorescence in the presence of excess EDTA and 1% TritonX-100, [RZ3] is the concentration of encapsulated RZ-3, and SA/Vol is the surface area to volume ratio calculated assuming hollow spheres of the mean diameter determined by DLS. Intracellular [Zn^2+]free Imaging

TOV112D cells = assay: Intracellular [Zn2+]free imaging with FluoZin-3-AM, TOV112D cells; type: cell-based; conditions: ZMC1 alone without ZnCl2, EBSS/H (−)Ca/Mg
Protocol: as §1
To normalize for differential dye loading, cells were then sequentially treated with excess PYR/ZnCl2, imaged, treated with TPEN, and imaged again. […]
TOV112D or HEK293 cells (40,000 cells/well) were plated on either 8-well BD Falcon chambered culture slides (Corning Life Sciences) or 8-chambered #1.5 Nunc Lab-Tek II chambered coverglasses (Thermo Scientific) treated with poly-L-lysine. […] To determine the kinetics of fluorescence change, each background-subtracted image in the time-lapse series was integrated in ImageJ and normalized to the integrated fluorescence of the first frame after treatment. For quantification of intracellular [Zn^2+]free, each cell was analyzed in the treated, 50 μM PYR/ZnCl2 (1:1), and 100 μM TPEN images by taking the mean fluorescence of an ROI inside the cell subtracted by an ROI immediately outside the cell measured in ImageJ. […]

[2] = Liposomal leakage assay (calcein) and liposome size distribution
Protocol: To ensure that the fluorescence results were due to Zn^2+ transport and not to non-specific disruption of liposomal membranes, a liposomal leakage assay was performed using the self-quenching fluorophore calcein. When calcein is encapsulated at concentrations above 4 mM its fluorescence is decreased via self-quenching. Leakage is detected by a fluorescence increase as the dye dilutes and its fluorescence dequenches. […] Disruption of liposomes can also be detected by alteration of their size distribution.
as §2, with “1: […]” for “1:”

| Structure (SMILES) | increase of intracellular [Zn2+]free (FZ3-AM fluorescence) (HEK293 cells) | ability to cross liposomal or cellular membranes [1] | Zn2+ shuttling into liposomes [1] | increase in intracellular [Zn2+]free, ZMC1 alone (HEK293 cells; HEK293, ZMC1 alone without ZnCl2, EBSS/H (−)Ca/Mg) | increase in intracellular [Zn2+]free, ZMC1 alone (TOV112D cells) | RZ-3 fluorescence after reversing [Zn2+]free gradient with excess external EDTA ([1]; ZMC1 added after EDTA, export of Zn2+ from liposomes) | calcein fluorescence increase (liposome leakage) ([2]; highest concentrations of ZMC1 and ZnCl2) | size distribution of liposomes ([2]; highest concentrations of ZnCl2 and ZMC1) |
| --- | --- | --- | --- | --- | --- | --- | --- | --- |
| O=C(O)CN(CC(=O)O)CC(=O)O [NTA] | did not | cannot cross either liposomal or cellular membranes | did not |  |  |  |  |  |
| C/C(=N\NC(=O)N1CCC1)c1ccccn1 [Example A6] | did not |  | shuttled Zn^2+ into the liposomes |  |  |  |  |  |
| C/C(=N\NC(=S)N1CCC1)c1ccccn1 [ZMC1] | increased | can cross biological membranes both as free drug and drug-Zn^2+ complex |  | neither cell type showed an increase | neither cell type showed an increase | time dependent decrease | a significant fluorescence increase was not detected | identical to that of untreated liposomes |
